From publication PMC11083148, “Structure–Activity Relationship Studies on Highly Functionalized Pyrazole Hydrazones and Amides as Antiproliferative and Antioxidant Agents” (International Journal of Molecular Sciences, 2024)

Assays:
Assay type in all cases: cell-based
HeLa = test: MTT assay, antiproliferative activity; details: Homo sapiens; for activity at 10 µM: 48h, read-out: Mean Growth Percentage
MCF7 = test: MTT assay, antiproliferative activity; details: Homo sapiens; for mean growth percentage (cell growth remaining vs control) at 10 µM: 48h
SKMEL28 = test: MTT assay, antiproliferative activity; details: Homo sapiens; for Mean growth percentage at 10 µM: SK-MEL-28, 10 µM, 48h
SKOV3 = test: MTT assay, antiproliferative activity; details: Homo sapiens; for Mean growth percentage at 10 µM: SK-OV-3, 10 µM, 48h
HL-60(TB) = test: NCI screening, Leukemia; details: 10 µM
Method: (§1) In addition, 11a and 17 (representative compounds of the acylhydrazone and amide series) were selected by the National Cancer Institute (NCI, Germantown, MD, USA) and tested at a fixed concentration of 10 µM against a panel of fifty-nine different cancer cell lines, including highly metastatic tumors (Table 2).

K-562 = test: NCI screening, Leukemia; details: K-562, Leukemia; 10 µM
Method: as §1

SR = test: NCI screening, Leukemia; details: 10 µM
Method: as §1

A549/ATCC = test: NCI screening, Non-Small Cell Lung Cancer; details: 10 µM
Method: as §1

EKVX = test: NCI screening, Non-Small Cell Lung Cancer; details: 10 µM
Method: as §1

HOP-62 = test: NCI screening, Non-Small Cell Lung Cancer; details: HOP-62, Non-Small Cell Lung Cancer; 10 µM
Method: as §1

HOP-92 = test: NCI screening, Non-Small Cell Lung Cancer; details: HOP-92, Non-Small Cell Lung Cancer; 10 µM
Method: as §1

NCI-H226 = test: NCI screening, Non-Small Cell Lung Cancer; details: 10 µM
Method: as §1

NCI-H23 = test: NCI screening, Non-Small Cell Lung Cancer; details: 10 µM
Method: as §1

NCI-H322M = test: NCI screening, Non-Small Cell Lung Cancer; details: 10 µM
Method: as §1

COLO 205 = test: NCI screening, Colon Cancer; details: COLO 205, Colon Cancer; 10 µM
Method: as §1

HCC-2998 = test: NCI screening, Colon Cancer; details: HCC-2998, Colon Cancer; 10 µM
Method: as §1

KM12 = test: NCI screening, Colon Cancer; details: 10 µM
Method: as §1

BT-549 = test: NCI screening, Breast Cancer; details: BT-549, Breast Cancer; 10 µM
Method: as §1

MDA-MB-231/ATCC = test: NCI screening, Breast Cancer; details: 10 µM
Method: as §1

T-47D = test: NCI screening, Breast Cancer; details: 10 µM
Method: as §1

LOX IMVI = test: NCI screening, Melanoma; details: 10 µM
Method: as §1

M14 = test: NCI screening, Melanoma; details: 10 µM
Method: as §1

MDA-MB-435 = test: NCI screening, Melanoma; details: MDA-MB-435, Melanoma; 10 µM; negative values indicate lethality
Method: as §1

Compound	activity at 10 µM (HeLa) [%]	mean growth percentage (cell growth remaining vs control) at 10 µM (MCF7) [%]	Mean growth percentage at 10 µM (SKMEL28) [%]	Mean growth percentage at 10 µM (SKOV3) [%]	Growth Percentage (%) (A549/ATCC)	Growth Percentage (%) (EKVX)	Growth Percentage (%) (HOP-62)	Growth Percentage (%) (HOP-92)	Growth Percentage (%) (NCI-H226)	Growth Percentage (%) (NCI-H23)	Growth Percentage (%) (NCI-H322M)	Growth Percentage (%) (COLO 205)	Growth Percentage (%) (HCC-2998)	Growth Percentage (%) (KM12)	Growth Percentage (%) (BT-549)	Growth Percentage (%) (MDA-MB-231/ATCC)	Growth Percentage (%) (T-47D)	other results
CCOC(=O)c1c(NC(=O)C2CC2)nn(C)c1Nc1ccccc1 [compound 17, Ethyl 3-(cyclopropanecarboxamido)-1-methyl-5-(phenylamino)-1H-pyrazole-4-carboxylate]	109	92.8	85.9	86.9	101.59	96.82	110.36	81.47	98.86	98.44	94.41	106.91	114.15	105.43	118.46	100.37	93.07	Growth Percentage (%) (HL-60(TB)): 96.44%; Growth Percentage (%) (K-562): 96.41%; Growth Percentage (%) (SR): 94.23%; Growth Percentage (%) (LOX IMVI): 102.01%; Growth Percentage (%) (M14): 102.31%; Growth Percentage (%) (MDA-MB-435): 101.76%
COc1ccc(/C=N/NC(=O)c2c(N)nn(C)c2Nc2ccccc2)cc1 [11a, (E)-3-amino-N′-(4-methoxybenzylidene)-1-methyl-5-(phenylamino)-1H-pyrazole-4-carbohydrazide]	25	33.6	49.4	43.6	57.09	69.71	38.79	46.79	51.61	66.86	89.96	35.82	59.18	27.82	14.04	65.06	42.38	IC50 (HeLa; MTT): 4.63 ± 0.41 µM; IC50 (MCF7; MTT): 6.9 ± 0.34 µM; IC50 (SKMEL28; SK-MEL-28, MTT): 9.45 ± 0.66 µM; IC50 (SKOV3; SK-OV-3, MTT): 6.88 ± 0.23 µM
